Measurements published in US8252768B2, “Designer therapy of pancreatic tumors” (University of Miami, priority 2006, dated 2012).
Read-outs that look alike come from different tables or passages of the source. Marks after values point to notes of the source that are not given here.

Experiments:
[1] = biological target: T1, cytidine deaminase (CD) (Homo sapiens, UniProt P32320); test: Competition assay for substrates of cytidine deaminase, crude extracts of PC-3 cells; type: biochemical; conditions: for substrate for cytidine deaminase (in words): competition studies, human tumor cell extracts; for % Inhibition (CD) / inhibition at 250 µM: competitor 250 μM; for % Inhibition (CD) / inhibition / inhibition at 250 µM: ratio 10, PC-3 extracts
T1 construct: Crude extracts of PC-3 cells in culture were prepared as described above; endogenous in cells; host or cells: PC-3 cells (crude extract supernatant)
T1 sequence (P32320 whole entry): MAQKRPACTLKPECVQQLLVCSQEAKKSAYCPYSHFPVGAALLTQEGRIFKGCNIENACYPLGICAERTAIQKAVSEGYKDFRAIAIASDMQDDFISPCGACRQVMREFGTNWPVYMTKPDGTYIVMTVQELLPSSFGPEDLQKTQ
Experimental: The crude enzyme extract (the supernatant of a 10 minute 14,000×g centrifugation) was then added. When cytidine was used as substrate, assays were conducted with benzacyclouridine to inhibit uridine phosphorylases. […] After 0, 15, and 30 minutes, the reaction was stopped and denatured protein removed as above for dC Kinase. […] Aliquots were then spotted on PE cellulose TLC sheets and the reactants separated with a solvent system composed of isopropanol:HCl:H2O (170:41:39). […] The nucleosides were visualized under U.V. light and the spots cut out and counted. […] Enzyme activity was expressed as nmole formed in 30 min/mg/protein.
Competition assays to determine Substrate Specificity: Crude extracts of PC-3 cells in culture were prepared as described above. Two concentrations of crude extract were utilized for the studies as determined from the analysis of protein.
The assays were run for 0, 15, and 30 minutes.

[2] = tested on: PC-3 cells; test: Radiosensitization of cells in culture (Cobalt 60, clonogenic survival); type: cell-based, human; conditions: for effect of tetrahydrouridine (H4U) on radiosensitization (in words) / effect of thymidine on radiosensitization (in words): cells in culture
Experimental: (§1) Toxicity and Radiation Studies: The methods using clonogenic assays described by Perez and Greer (Int. J. Rad. Oncology: Biology, Physics 12, 1523-1527, 1986—incorporated herein by reference in its entirety) were followed.
Irradiation of Cells in Culture: 2×10^5 cells were plated in 25 cm^2 flasks and grown for 18 hr at 37° C. in a humidified 5% CO2 atmosphere. The medium was then removed and replaced with medium containing the appropriate drug concentrations and incubated for 72 hrs then removed and the cell monolayers were rinsed twice with PBS. The flasks were then filled with 50 ml of radiation medium (3 parts RPMI 1640 and 7 parts PBS plus antibiotics and glutamine). The cells were then irradiated using a Cobalt 60 irradiator. The cell monolayers were placed 35 cm away from the source and irradiated for appropriate times according to the dose rate. The dose rate was calculated, at this distance, using ionization chambers. Attenuation factors due to the polystyrene flask (0.9923) and the medium (H2O=0.8715) were considered in calculating the exposure period.
After irradiation the cell monolayers were washed again, replenished with growth media, and incubated for 1½ hours. The cell monolayers were then trypsinized and the cells serially diluted, appropriate dilutions were then plated in 60 mm dishes and incubated for 7-9 days at 37° C. and CO2. At the end of this period the cells were stained with crystal violet and the colony forming ability determined by considering 25 or more normal cells as a viable colony. The viabilities were determined and the appropriate survival curves derived. All conditions were done in duplicate using two flasks treated under identical conditions.

[3] = tested on: PC-3 cells; test: Cytotoxicity (clonogenic) assay, 72 h drug exposure; type: cell-based, human
Experimental: as §1
Cytotoxicity Assays: 5×10^5 cells were plated in 60 mm tissue culture dishes in 5 mls of the optimal growth media for the particular cell line in an humidified 95% air-5% CO2 atmosphere. The plates were incubated for 18-20 hours to allow for attachment and log-phase growth to begin. At the end of this period the growth medium was aspirated and replaced with […]. Four times (4×) concentrated solutions were prepared and then 1 ml was added to the plates; and growth media were then added to a total volume of […]. The plates were then incubated for 72 hours and the cells harvested by trypsinization. The cells were then serially diluted in growth medium replated into 60 mm dishes and incubated for 6 to 9 days depending on the cell line. After this incubation period, the media was aspirated and the colonies were washed twice with a PBS solution. The colonies were then stained with a 0.2% crystal violet-20% ethanol solution for 5 min. the stain was removed, the colonies were washed and air dried. A viable colony was one consisting of 25 or more normal appearing cells and was considered to have arisen from a single cell. The colonies were counted under a dissecting microscope. Two to three dilutions for every condition were plated. Dishes containing 30-300 colonies were used in the calculation and all conditions were done in duplicate.

[4] = tested on: uridine/cytidine kinase; test: Competition assay for substrates of uridine/cytidine kinase, crude extracts of T24 cells; type: biochemical, human
Experimental: 2 mM dithiothreitol (DTT) and 0.5 mM phenylmethylsulfanyl fluoride were added just before extraction. The tissue sample was homogenized in a Dounce glass homogenizer and then sonicated for 3 five-second pulses in a Branson Sonifier with a micro-tip at 25 KHz to disrupt the cells. During homogenization and sonication the extract was kept cold throughout the procedures. The tissue extract was then centrifuged at 14,000×g at 4° C. for 15 min., and the supernatant (the crude enzyme extract) was removed. The supernatant was sheared 20 times on ice utilizing a 1 cc syringe with a 27 G½ needle to reduce viscosity. […] 2 mM DTT and 340 μM H4U were added just before the assay. Finally, to the reaction mixture, 5 μl 200 mM creatine phosphate and creatine phosphokinase (0.5 unit/μl) was added to 150 μl of the section mixture. […] H2O bath for 1 minute before 20 μl of the crude enzyme extract was added to initiate the reaction. […] At 0, 30 and 60 minutes the reaction mixture, divided in separate tubes, was heated in a boiling water bath for 2 minutes to terminate the reaction. Denatured protein was then removed by centrifugation of the sample for 2 minutes at 14,000×g. The amount of nucleotide formed was determined by spotting 20 μl aliquots of the reaction mixture onto DE-81 2.2 cm Whatman filter discs. After air drying, the unphosphorylated substrate nucleoside was removed by washing twice for 10 min. in 20 mM ammonium formate and twice for 5 min. in deionized H2O with gentle stirring. A control, lacking the crude enzyme extract was included with each determination. The washed papers were dried under a heat lamp and then placed into individual scintillation vials, eluted for 30 min. in 1 ml of 0.1M HCl-0.1M KCL and then vortexed in 5 ml of scintillation fluid and counted. Enzyme activity was expressed as pmoles/min/mg protein.
When uridine was utilized as substrate, benzacyclouridine was added to prevent the catabolism of the substrate by uridine phosphorylase and tetrahydrouridine was omitted.

[5] = biological target: deoxycytidine kinase (dCK) (Homo sapiens, UniProt P27707); test: Competition assay for substrates of deoxycytidine kinase, crude extracts of PC-3 cells; conditions: for inhibition at 250 µM: read-out: % Inhibition (dCK)
deoxycytidine kinase (dCK), sequence (P27707 whole entry): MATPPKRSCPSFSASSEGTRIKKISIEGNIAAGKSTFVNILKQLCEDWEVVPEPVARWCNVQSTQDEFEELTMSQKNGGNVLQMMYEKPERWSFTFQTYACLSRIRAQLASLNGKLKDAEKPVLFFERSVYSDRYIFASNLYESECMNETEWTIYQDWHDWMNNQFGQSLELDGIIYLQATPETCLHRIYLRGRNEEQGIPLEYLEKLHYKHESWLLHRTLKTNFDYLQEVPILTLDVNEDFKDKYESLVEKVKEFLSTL

[6] = substrate 3H-Deoxycytidine 25 μM
[7] = competitor 100 μM, substrate 3H-Cytidine 8.3 μM
[8] = competitor 100 μM, substrate 3H-Uridine 16.7 μM
[9] = competitor 250 μM, substrate 3H-Cytidine 8.3 μM
[10] = competitor 250 μM, substrate 3H-Uridine 16.7 μM
[11] = competitor 500 μM, substrate 3H-Cytidine 8.3 μM
[12] = competitor 500 μM, substrate 3H-Uridine 16.7 μM
[13] = competitor 750 μM, substrate 3H-Uridine 16.7 μM

CNc1nc(=O)n([C@H]2C[C@H](O)[C@@H](CO)O2)cc1Cl [4-N,methylamino CldC, 4-N, methylamino-5-Chloro-2′-deoxycytidine]
substrate for cytidine deaminase (in words) [1]: reasonably good substrate
% Inhibition (CD) ([1]; substrate 3H-Cytidine 25 μM): 13%
% Inhibition (CD) [1, 6]: 29%
radiosensitization of PC-3 cells (in words) [2]: potent radiosensitizing effect
effect of tetrahydrouridine (H4U) on radiosensitization (in words) [2]: antagonism by tetrahydrouridine
effect of thymidine on radiosensitization (in words) [2]: antagonized by thymidine

CNc1nc(=O)n([C@H]2C[C@H](O)[C@@H](CO)O2)cc1F [4-N,methylamino FdC, 4-N, methylamino-5-Fluoro-2′-deoxycytidine]
substrate for cytidine deaminase (in words) ([1]; listed as 4-N, methylamino FdC): poor substrate
substrate for cytidine deaminase (in words) ([1]; listed as 4-N, methylamino-5-Fluoro-2′-deoxycytidine): moderate to poor substrate
% Inhibition (CD) ([1]; substrate 3H-Cytidine 25 μM): 0%
% Inhibition (CD) [1, 6]: 4.0%
effect of thymidine on cytotoxicity (in words) ([3]; PC-3 cells): antagonized by thymidine
effect of tetrahydrouridine (H4U) on cytotoxicity / viability (in words) ([3]; PC-3 cells, listed as 4-N, methylamino FdC): antagonized by tetrahydrouridine
effect of tetrahydrouridine (H4U) on cytotoxicity / viability (in words) ([3]; PC-3 cells, listed as 4N, methylFdC): prevented by tetrahydrouridine

O=c1[nH]c(=O)n(COCCO)cc1Cc1ccccc1 [5-Benzacyclouridine]
% Inhibitation (U/C kinase) ([4]; competitor 1500 μM, substrate 3H-Cytidine 8.3 μM): 0%
% Inhibitation (U/C kinase) ([4]; competitor 1500 μM, substrate 3H-Uridine 16.7 μM): 7.0%

Nc1nc(=O)n([C@H]2C[C@H](O)[C@@H](CO)O2)cc1Br [5-BrdC, 5-Bromo-2′-deoxycytidine]
substrate for cytidine deaminase (in words) [1]: good substrates
inhibition ([1]; substrate 3H-Cytidine 25 μM): 50%
effect of thymidine on radiosensitization (in words) [2]: antagonized by thymidine
substrate for deoxycytidine kinase (in words) ([5]; competition studies, human tumor cell extracts): very poor substrates
inhibition at 250 µM [5]: 0%

Nc1nc(=O)n([C@@H]2O[C@H](CO)[C@@H](O)[C@H]2O)cc1Cl [5-Chlorocytidine]
effect of tetrahydrouridine (H4U) on cytotoxicity / viability (in words) ([3]; human, 72 h): H4U decreases viability
substrate for U/C kinase of T24 cells (in words) [4]: moderate substrates
% Inhibitation (U/C kinase) [4, 7]: 10%
% Inhibitation (U/C kinase) [4, 8]: 2%
% Inhibitation (U/C kinase) [4, 9]: 24%
% Inhibitation (U/C kinase) [4, 10]: 23%
radiosensitization of PC-3 cells (in words) [2]: radiosensitization
effect of tetrahydrouridine (H4U) on radiosensitization (in words) [2]: decreases radiosensitization

Nc1nc(=O)n([C@H]2C[C@H](O)[C@@H](CO)O2)cc1Cl [5-Chlorodeoxycytidine, 5-chloro-2′-deoxycytidine, reference compound]
inhibition at 250 µM [1, 6]: 42%
inhibition ([1]; substrate 3H-Cytidine 25 μM): 80%
% Inhibitation (U/C kinase) [4, 10]: 0%
% Inhibitation (U/C kinase) [4, 11]: 5.1%
inhibition at 250 µM [5]: 72%

O=c1[nH]c(=O)n([C@H]2C[C@H](O)[C@@H](CO)O2)cc1Cl [5-Chlorodeoxyuridine]
% Inhibitation (U/C kinase) ([4]; competitor 200 μM, substrate 3H-Cytidine 8.3 μM): 7.0%
% Inhibitation (U/C kinase) [4, 10]: 0%

Nc1nc(=O)n([C@@H]2O[C@H](CO)[C@@H](O)[C@H]2O)cc1F [5-Fluorocytidine]
% Inhibitation (U/C kinase) [4, 8]: 34%
% Inhibitation (U/C kinase) [4, 9]: 51%
% Inhibitation (U/C kinase) [4, 10]: 58%
% Inhibitation (U/C kinase) [4, 11]: 66%

Nc1nc(=O)n([C@H]2C[C@H](O)[C@@H](CO)O2)cc1F [5-Fluorodeoxycytidine, reference compound]
inhibition at 250 µM [1, 6]: 50%
inhibition ([1]; substrate 3H-Cytidine 25 μM): 83%
% Inhibitation (U/C kinase) [4, 11]: 4.8%
inhibition at 250 µM [5]: 90%

O=c1[nH]c(=O)n([C@@H]2O[C@H](CO)[C@@H](O)[C@H]2O)cc1F [5-Fluorouridine]
% Inhibitation (U/C kinase) [4, 8]: 56%
% Inhibitation (U/C kinase) [4, 10]: 80%

Cc1cn([C@H]2C[C@H](O)[C@@H](CO)O2)c(=O)nc1N [5-methyldC, reference compound]
% Inhibition (CD) ([1]; substrate 3H-Cytidine 25 μM): 30%

Nc1ccn([C@@H]2O[C@H](CO)[C@@H](O)[C@H]2O)c(=O)n1 [Cytidine]
% Inhibitation (U/C kinase) [4, 7]: 66%
% Inhibitation (U/C kinase) [4, 8]: 57%
% Inhibitation (U/C kinase) [4, 9]: 85%
% Inhibitation (U/C kinase) [4, 10]: 89%
% Inhibitation (U/C kinase) [4, 11]: 88%
% Inhibitation (U/C kinase) [4, 12]: 90%
% Inhibitation (U/C kinase) [4, 13]: 96%

Nc1ccn([C@H]2C[C@H](O)[C@@H](CO)O2)c(=O)n1 [Deoxycytidine]
inhibition at 250 µM [1, 6]: 66%
% Inhibitation (U/C kinase) [4, 9]: 10%
% Inhibitation (U/C kinase) [4, 10]: 0%
% Inhibitation (U/C kinase) [4, 11]: 20%

O=c1ccn([C@H]2C[C@H](O)[C@@H](CO)O2)c(=O)[nH]1 [Deoxyuridine]
% Inhibitation (U/C kinase) [4, 10]: 0** %

O=c1[nH]c(=O)n([C@H]2C[C@H](O)[C@@H](CO)O2)cc1I [IdU, 5-Iododeoxyuridine, reference compound]
effect of tetrahydrouridine (H4U) on cytotoxicity / viability (in words) [3]: relative lack of the effect of tetrahydrouridine
effect of tetrahydrouridine (H4U) on radiosensitization (in words) [2]: relative lack of the effect of tetrahydrouridine

O=c1ccn([C@@H]2O[C@H](CO)[C@@H](O)[C@H]2O)c(=O)[nH]1 [Uridine]
inhibition at 250 µM [1, 6]: 2%
% Inhibitation (U/C kinase) [4, 7]: 59%
% Inhibitation (U/C kinase) [4, 8]: 62%
% Inhibitation (U/C kinase) [4, 9]: 75%
% Inhibitation (U/C kinase) [4, 10]: 80%
% Inhibitation (U/C kinase) [4, 11]: 80%
% Inhibitation (U/C kinase) [4, 12]: 87%
% Inhibitation (U/C kinase) ([4]; competitor 750 μM, substrate 3H-Cytidine 8.3 μM): 86%
% Inhibitation (U/C kinase) [4, 13]: 90%
inhibition at 250 µM [5]: 0%
